Measured values taken from doi:10.1101/2021.01.04.425289v1 (biorxiv, 2021).
pIC50: −log10 of the molar value. Starred links: 1 amine or outer side, 2 acyl side, 3 side chain; linkers in the order of their positions; H or OH if unused. Residues, ends and D or L forms follow the SMILES beside them. CO = O=C([*:1])[*:2]

Biological target: Furin (Homo sapiens, UniProt P09958)
Experiment: biochemical

Furin, sequence (P09958 whole entry): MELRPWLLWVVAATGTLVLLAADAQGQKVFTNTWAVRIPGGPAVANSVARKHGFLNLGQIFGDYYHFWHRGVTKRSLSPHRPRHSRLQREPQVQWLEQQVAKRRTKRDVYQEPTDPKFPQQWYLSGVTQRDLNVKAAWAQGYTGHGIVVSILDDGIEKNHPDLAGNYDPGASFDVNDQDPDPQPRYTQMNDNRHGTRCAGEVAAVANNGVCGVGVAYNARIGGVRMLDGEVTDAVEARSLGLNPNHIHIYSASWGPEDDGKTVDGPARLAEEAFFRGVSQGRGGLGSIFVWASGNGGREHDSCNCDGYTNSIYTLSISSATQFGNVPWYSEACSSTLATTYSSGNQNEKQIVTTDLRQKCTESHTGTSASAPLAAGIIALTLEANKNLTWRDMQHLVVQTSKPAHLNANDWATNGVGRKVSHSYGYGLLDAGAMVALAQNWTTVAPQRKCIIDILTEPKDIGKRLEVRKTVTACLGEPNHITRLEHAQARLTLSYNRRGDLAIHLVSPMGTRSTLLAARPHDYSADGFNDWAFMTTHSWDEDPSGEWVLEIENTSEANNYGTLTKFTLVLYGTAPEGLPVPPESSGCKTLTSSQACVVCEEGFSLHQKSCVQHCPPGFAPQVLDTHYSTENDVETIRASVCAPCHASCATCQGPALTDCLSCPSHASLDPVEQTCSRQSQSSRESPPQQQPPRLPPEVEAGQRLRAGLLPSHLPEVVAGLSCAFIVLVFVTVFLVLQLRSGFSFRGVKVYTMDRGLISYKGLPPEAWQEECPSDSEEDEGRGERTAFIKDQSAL

| SMILES | pIC50 |
| --- | --- |
| CC(C)[C@H](NC(=O)[C@H](CCCNC(=N)N)NC(=O)N[C@@H](Cc1ccccc1)C(=O)O)C(=O)N[C@H](C=O)CCCNC(=N)N [Antipain] ({Phe-CO}-Arg-Val-Arg-aldehyde) | < 5.00 |
| CN(C)C(=O)COC(=O)Cc1ccc(OC(=O)c2ccc(NC(=N)N)cc2)cc1 [Camostat] | < 5.00 |
